Results taken from ChEMBL document CHEMBL5543109, “Novel β-Hairpin Antimicrobial Peptide Containing the β-Turn Sequence of -NG- and the Tryptophan Zippers Facilitate Self-Assembly into Nanofibers, Exhibiting Excellent Antimicrobial Performance” (J Med Chem, 2024).
Converted amounts (≈) assume the structure as drawn. The source made the active and inactive calls. No cut-off for these calls is given here.

Key:
Staphylococcus aureus [1] = assay: Antibacterial activity against Staphylococcus aureus 794 infected in BALB/c mouse skin wound infection model assessed as reduction in wound bacterial load at 1 mg/ml, ip administered at 1 hr interval for total 6 treatment and measured after 1 hr post last dose in presence of vancomycin; assay type: functional, organism-based; conditions: time 7.0 hrs
Klebsiella pneumoniae = assay: Bactericidal activity against Klebsiella pneumoniae at 2 times MIC within 90 mins; assay type: functional; conditions: 1.5 h
Staphylococcus aureus [2] = assay: Synergistic antibacterial activity against methicillin resistant Staphylococcus aureus 75 assessed as fractional inhibitory concentration index incubated for 18 hrs in presence of kanamycin by checkerboard assay; assay type: functional
Cell membrane [3] = assay: Induction of cell membrane disruption in Staphylococcus aureus assessed as PI uptake incubated for 2 hrs by PI staining based confocal laser scanning microscopy; assay type: cell membranes
Escherichia coli [4] = assay: Additive antibacterial activity against rifampicin resistant Escherichia coli assessed as fractional inhibitory concentration index incubated for 18 hrs in presence of rifampin by checkerboard assay; assay type: functional
Pseudomonas aeruginosa [5] = assay: Antibacterial activity against Pseudomonas aeruginosa ATCC 27853 incubated for 18 hrs by broth microdilution method; assay type: functional
Staphylococcus aureus [6] = assay: Synergistic antibacterial activity against methicillin resistant Staphylococcus aureus assessed as fractional inhibitory concentration index incubated for 18 hrs in presence of kanamycin by checkerboard assay; assay type: functional
Staphylococcus aureus [7] = assay: Additive antibacterial activity against methicillin resistant Staphylococcus aureus assessed as fractional inhibitory concentration index incubated for 18 hrs in presence of ciprofloxacin by checkerboard assay; assay type: functional
Staphylococcus aureus [8] = assay: Antibacterial activity against Staphylococcus aureus 794 infected in BALB/c mouse skin wound infection model assessed as reduction in TNFalpha level at 1 mg/ml, ip pre-infected with bacteria for 24 hrs followed by compound addition and measured after 13 days post infection; assay type: functional, organism-based; conditions: time 12.0 day
Staphylococcus aureus [9] = assay: Bactericidal activity against Staphylococcus aureus ATCC 25923 incubated for 18 hrs by broth microdilution method; assay type: functional
[10] = Toxicity in BALB/c mouse infected with Staphylococcus aureus 794 assessed as cell necrosis at 1 mg/ml, ip pre-infected with bacteria for 24 hrs followed by compound addition and measured after 13 days in presence of vancomycin by H and E staining based histopathological analysis; assay type: organism-based; conditions: in vivo, 312 h, time 13 day
Escherichia coli [11] = assay: Antibacterial activity against rifampicin resistant Escherichia coli incubated for 18 hrs by broth microdilution method; assay type: functional
Staphylococcus aureus [12] = assay: Additive antibacterial activity against methicillin resistant Staphylococcus aureus 113 assessed as fractional inhibitory concentration index incubated for 18 hrs in presence of cefotaxime by checkerboard assay; assay type: functional
Staphylococcus aureus [13] = assay: Additive antibacterial activity against Staphylococcus aureus assessed as fractional inhibitory concentration index incubated for 18 hrs in presence of ciprofloxacin by checkerboard assay; assay type: functional
Staphylococcus aureus [14] = assay: Antibacterial activity against Staphylococcus aureus at 2 times MIC preincubated for 1 hr with chymotrypsin followed by enzyme inactivation and bacterial addition and measured after 18 hrs; assay type: functional; conditions: time 19 hrs
Cell membrane [15] = assay: Induction of cell membrane disruption in Staphylococcus aureus assessed as PI uptake at 2 times MIC incubated for 2 hrs by PI staining based flow cytometry analysis (reference value: 15.9%); assay type: cell membranes
Escherichia coli [16] = assay: Antibacterial activity against kanamycin resistant Escherichia coli assessed as fractional inhibitory concentration index incubated for 18 hrs in presence of streptomycin by checkerboard assay; assay type: functional
Cell membrane [17] = assay: Induction of cell membrane disruption in Escherichia coli assessed as PI uptake at 4 times MIC incubated for 2 hrs by PI staining based flow cytometry analysis (reference value: 11.9%); assay type: cell membranes
Pseudomonas aeruginosa [18] = assay: Additive antibacterial activity against Pseudomonas aeruginosa assessed as fractional inhibitory concentration index incubated for 18 hrs in presence of rifampin by checkerboard assay; assay type: functional
Cell membrane [19] = assay: Induction of cytoplasmic membrane depolarization in Staphylococcus aureus at 0.5 times MIC by DiSC3-5 dye based fluorescence method; assay type: cell membranes
Staphylococcus aureus [20] = assay: Antibacterial activity against Staphylococcus aureus 794 infected in BALB/c mouse skin wound infection model assessed as reduction in TNFalpha level at 1 mg/ml, ip pre-infected with bacteria for 24 hrs followed by compound addition and measured after 13 days post infection in presence of vancomycin; assay type: functional, organism-based; conditions: time 12.0 day
Staphylococcus aureus [21] = assay: Additive antibacterial activity against methicillin resistant Staphylococcus aureus 75 assessed as fractional inhibitory concentration index incubated for 18 hrs in presence of gentamycin by checkerboard assay; assay type: functional
Staphylococcus aureus [22] = assay: Antibacterial activity against kanamycin resistant Staphylococcus aureus assessed as fractional inhibitory concentration index incubated for 18 hrs in presence of kanamycin by checkerboard assay; assay type: functional
Escherichia coli [23] = assay: Antibacterial activity against kanamycin resistant Escherichia coli assessed as fractional inhibitory concentration index incubated for 18 hrs in presence of kanamycin by checkerboard assay; assay type: functional
[24] = Retention time of the compound; assay type: physicochemical
Staphylococcus aureus [25] = assay: Antibacterial activity against Staphylococcus aureus 794 infected in BALB/c mouse skin wound infection model assessed as wound healing at 1 mg/ml, ip pre-infected with bacteria for 24 hrs followed by compound addition and measured on day 4; assay type: functional, organism-based; conditions: time 4.0 day
Staphylococcus aureus [26] = assay: Antibacterial activity against Staphylococcus aureus 794 infected in BALB/c mouse skin wound infection model assessed as wound healing by measuring detached scab at 1 mg/ml, ip pre-infected with bacteria for 24 hrs followed by compound addition and measured on day 7; assay type: functional, organism-based; conditions: time 7.0 day
Pseudomonas aeruginosa [27] = assay: Antibacterial activity against Pseudomonas aeruginosa incubated for 18 hrs in presence of FeCl3 by broth microdilution method; assay type: functional, organism-based

NCCCC[C@@H](NC(=O)[C@H](N)Cc1c[nH]c2ccccc12)C(=O)N[C@H](Cc1c[nH]c2ccccc12)C(=O)N[C@H](CCCCN)C(=O)N[C@H](Cc1c[nH]c2ccccc12)C(=O)N[C@@H](CC(N)=O)C(=O)NCC(=O)N[C@H](Cc1c[nH]c2ccccc12)C(=O)N[C@H](CCCCN)C(=O)N[C@H](Cc1c[nH]c2ccccc12)C(=O)N[C@H](CCCCN)C(=O)N[C@H](Cc1c[nH]c2ccccc12)C(N)=O
Activity (Staphylococcus aureus [1]): Active
Activity (Klebsiella pneumoniae): 100%
fractional inhibitory concentration index (FICI) (Staphylococcus aureus [2]): 0.5
Activity (Cell membrane [3]): Dose-Dependent Effect
fractional inhibitory concentration index (FICI) (Escherichia coli [4]): 0.563
MIC (Pseudomonas aeruginosa [5]): 4 µM (≈ 7.27 µg/mL)
fractional inhibitory concentration index (FICI) (Staphylococcus aureus [6]): 0.313
fractional inhibitory concentration index (FICI) (Staphylococcus aureus [7]): 0.563
Activity (Staphylococcus aureus [8]): Active
MBC (Staphylococcus aureus [9]): 8 µM (≈ 14.5 µg/mL)
Activity [10]: Toxic
MIC (Escherichia coli [11]): 8 µM (≈ 14.5 µg/mL)
fractional inhibitory concentration index (FICI) (Staphylococcus aureus [12]): 0.563
fractional inhibitory concentration index (FICI) (Staphylococcus aureus [13]): 1
Activity (Staphylococcus aureus [14]): 100%
Activity (Cell membrane [15]): 96.6%
fractional inhibitory concentration index (FICI) (Escherichia coli [16]): 0.188
Activity (Cell membrane [17]): 92.8%
fractional inhibitory concentration index (FICI) (Pseudomonas aeruginosa [18]): 0.563
Activity (Cell membrane [19]): inactive
Activity (Staphylococcus aureus [20]): Active
fractional inhibitory concentration index (FICI) (Staphylococcus aureus [21]): 0.625
fractional inhibitory concentration index (FICI) (Staphylococcus aureus [22]): 0.563
fractional inhibitory concentration index (FICI) (Escherichia coli [23]): 0.188
Retention_time [24]: 14.321 min
Activity (Staphylococcus aureus [25]): inactive
Activity (Staphylococcus aureus [26]): Active
Activity (Pseudomonas aeruginosa [27]): Active
